# According to US9815866B2, “Peptides that bind to epithelial cell adhesion molecule” (JAPANESE FOUNDATION FOR CANCER RESEARCH, priority 2012, dated 2017):
# Bridge positions count the residues as written; N and C are the ends. Peptide text beside a SMILES is read from it.
# Columns and labels:
# [1] = biological target: T1, 293T cells transfected with full-length EpCAM gene (Homo sapiens, UniProt P16422); test: Staining of 293T cells forced to express EpCAM with FITC-modified peptide; assay type: cell-based; conditions: FITC-modified peptide with or without oxidation treatment
# T1 construct: an expression plasmid in which the full-length EpCAM gene incorporated; expressed in transfected cells; host or cells: 293T
# T1 sequence (P16422 24-314): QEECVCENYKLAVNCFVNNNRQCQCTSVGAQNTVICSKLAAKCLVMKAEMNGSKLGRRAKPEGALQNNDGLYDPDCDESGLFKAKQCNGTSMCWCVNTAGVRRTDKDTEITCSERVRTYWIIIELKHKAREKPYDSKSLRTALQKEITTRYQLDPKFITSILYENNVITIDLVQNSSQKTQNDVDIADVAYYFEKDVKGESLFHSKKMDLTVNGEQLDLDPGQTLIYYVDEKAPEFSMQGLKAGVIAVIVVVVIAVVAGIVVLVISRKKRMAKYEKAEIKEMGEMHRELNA
# Text: 293T cells expressing no endogenous EpCAM were transfected with pkk196, an expression plasmid in which the full-length EpCAM gene incorporated, and forced to express EpCAM, followed by staining using FITC-modified Ep114.
# HT-29-derived exosomes = biological target: T2, HT-29-derived exosomes (Homo sapiens, UniProt P16422); test: ELISA with immobilized biotinylated peptide and HT-29-derived exosomes; assay type: binding; conditions: increasing HT-29-derived exosomes
# T2 construct: endogenous in cells; host or cells: exosomes from HT-29 cells
# T2 sequence (P16422 24-314): T1 sequence (P16422 24-314)
# Protocol: was immobilized onto an ELISA plate via streptavidin, and HT-29-derived exosomes were added thereto and reacted. After washing, bound exosomes were detected using the anti-EpCAM antibody. The biotin-modified peptide PE194 of the L3A variant was immobilized in the same way as above and used as a control.
# MCF-7 cells = biological target: T3, MCF-7 cells (Homo sapiens, UniProt P16422); test: Staining of EpCAM in MCF-7 cells; assay type: cell-based; conditions: data not shown
# T3 construct: in MCF-7 cells known to express EpCAM; endogenous in cells; host or cells: MCF-7
# T3 sequence (P16422 24-314): T1 sequence (P16422 24-314)
# Protocol: (§1) The HT-29 cells as EpCAM-expressing cells were cultured by spheroid culture method as follows: 4×10^5 cells are suspended in 3 ml of D-MEM/F-12 medium (Dulbecco's Modified n Eagle Medium:Nutrient Mixture 12, 1:1 mixture) (Gibco/Life Technologies Inc.) supplemented with 20 ng/ml human EGF (Miltenyi Biotec K.K.), 20 ng/ml human EGF-2 (Miltenyi Biotec K.K.), B-27 (Gibco/Life Technologies Inc.), penicillin, and streptomycin and inoculated to EZ-Sphere®, a Petri dish of 3.5 cm in diameter coated with MPC polymer. After static culture for 72 hours, the cells were collected while the medium was suspended by pipetting. The cells were stained with the FITC-modified peptide and observed under a fluorescence microscope. The staining was carried out by adding 4 μM peptide into a McCoy's 5A medium and standing still at room temperature for 30 minutes.
# In addition to HT-29 cells, the staining of EpCAM using Ep114 was also confirmed by a similar method in MCF-7 cells known to express EpCAM (data not shown).
# [2] = biological target: T4, EpCAM-expressing cells HT-29 (Homo sapiens, UniProt P16422); test: Cell staining of HT-29 cells, confocal microscope; assay type: cell-based; conditions: HT-29, FITC-labeled peptide 0.4 μM, 37° C., 1 hour
# T4 construct: EpCAM on HT-29 was stained at a concentration of 0.4 μM; endogenous in cells; host or cells: HT-29
# T4 sequence (P16422 24-314): T1 sequence (P16422 24-314)
# Protocol: (§2) The EpCAM-expressing cells HT-29 or the non-expressing cells Hs578T were cultured in a medium containing 10% fetal calf serum in a Petri dish for 48 hours and then incubated at 37° C. for 1 hour with the FITC-labeled Ep114 peptide or a L3A control labeled peptide at a final concentration of 0.4 μM Immediately thereafter, the cells were observed under a confocal microscope.
# EpCAM [3] = biological target: T5, EpCAM (Homo sapiens, UniProt P16422); test: Dissociation constant of EpCAM-binding peptide and EpCAM by fluorescence depolarization method; conditions: immediately after chemical synthesis, no oxidation
# T5 construct: with insertions myc and His tags at the C terminus of the extracellular domain; myc (C); made in house; host or cells: HEK-293T
# T5 sequence (P16422 24-265 limits assumed): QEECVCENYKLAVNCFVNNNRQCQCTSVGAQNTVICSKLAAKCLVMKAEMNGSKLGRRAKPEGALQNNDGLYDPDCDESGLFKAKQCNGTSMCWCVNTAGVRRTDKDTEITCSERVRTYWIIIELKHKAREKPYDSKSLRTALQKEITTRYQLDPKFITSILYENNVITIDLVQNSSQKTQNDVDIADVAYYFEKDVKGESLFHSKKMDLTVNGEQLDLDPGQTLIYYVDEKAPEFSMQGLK
# Protocol: The obtained EpCAM peptides were assayed for their strength of binding to EpCAM by the fluorescence depolarization method, which is a method for evaluating the interaction between molecules. Each fluorescently labeled EpCAM peptide and EpCAM are used to determine the strength of binding from the kinetics of depolarization by Brownian movement.
# Each FITC-modified EpCAM peptide or control peptide was suspended at a concentration of approximately 100 μM in PBS. After centrifugation, the supernatant was collected and diluted 10-fold, and the absorbance was measured at 495 nm From the measurement value, the molar concentration of the peptide was determined using the formula of Beer-Lambert of the following expression 1: A=E×b×C [Expression 1]
# EpCAM is diluted with PBS into several concentrations from 0 until reaching equilibrium (40 nM for the Ep133 peptide), and the FITC-modified peptide whose precise concentration has been measured by the aforementioned method is added to the dilutions thus prepared. The sample was left at a temperature for measurement for 30 minutes or longer and subjected to polarization measurement using a spectrofluorometer FP-6500 (JASCO Corp.) equipped with an automatic polarization measurement unit (JASCO Corp., APH-103). Kd was estimated by curve fitting according to the Hill equation.
# The dissociation constants of the two types of peptides Ep133 (FIG. 2(A)) and Ep114 (FIG. 2(C)), which were obtained in the present invention and had the high ability to bind to EpCAM, were measured by the fluorescence depolarization method.
# The dissociation constants of the EpCAM-binding peptide Ep301 (FIG. 2(D)) disclosed in Patent Literature 2 and Ep301 control (FIG. 2(E)), which was a control peptide derived from Ep301 by the substitution of cysteine at positions 5 and 10 by serine, and a sequence of EpCAM from residue 106 to 119 (FIG. 2(F)) having partial homology to EpCAM-binding peptides were measured similarly.
# [4] = S—S bond formation (autoxidation) of peptide by fluorescence depolarization method and HPLC; assay type: physicochemical
# Text: The S—S bond formation of Ep114 was studied in detail using the fluorescence depolarization method and HPLC.
# EpCAM on HT-29 = biological target: T6, EpCAM on HT-29 (Homo sapiens, UniProt P16422); test: Staining of spheroid-cultured HT-29 cells with FITC-modified peptide; assay type: cell-based; set-up: endogenous in cells; host or cells: HT-29; conditions: FITC-labeled peptide, 0.4 μM
# T6 sequence (P16422 24-314): T1 sequence (P16422 24-314)
# Protocol: as §1, with “The staining was carried out by adding 4 μM peptide into a McCoy's 5A medium and standing still at room temperature for 30 minutes.” left out
# [5] = system: non-EpCAM-expressing cells Hs578T; test: Cell staining of Hs578T cells, confocal microscope; assay type: cell-based; conditions: FITC-labeled peptide 0.4 μM, 37° C., 1 hour
# Protocol: as §2
# EpCAM [6] = biological target: T7, EpCAM (Homo sapiens, UniProt P16422); test: Binding activity against EpCAM after oxidation treatment (S—S bond formation, HPLC fractionation)
# T7 sequence (P16422 24-314): T1 sequence (P16422 24-314)
# EpCAM [7] = biological target: T7, EpCAM; conditions: peptide separated from the phage; earlier work (Patent Literature 2); cited from earlier work
Structure (SMILES),ability to stain EpCAM [1],ELISA signal (HT-29-derived exosomes),staining of EpCAM (MCF-7 cells),staining of cell membrane portions [2],binding activity against EpCAM (EpCAM [3]),"S—S bond formation ([4]; in PBS at 4° C. or frozen at −20° C., data not shown)",oxidation ([4]; in the presence of 10% FCS),staining of EpCAM on HT-29 spheroids (EpCAM on HT-29),staining [5],binding activity against EpCAM (EpCAM [6]),ability of the peptide to bind to EpCAM (EpCAM [7])
"CC[C@H](C)[C@@H]1NC(=O)[C@H](CC(N)=O)NC(=O)[C@H](CCCNC(=N)N)NC(=O)[C@H](C(C)C)NC(=O)[C@@H](NC(=O)[C@H](CCC(N)=O)NC(=O)[C@H](CC(C)C)NC(=O)[C@H](Cc2c[nH]cn2)NC(=O)[C@@H](N)CCCCN)CSSC[C@@H](C(=O)N[C@@H](Cc2c[nH]c3ccccc23)C(=O)N[C@@H](CO)C(=O)O)NC1=O [Ep114, KHLQCVRNICWS] (H-KHLQCVRNICWS-OH; disulfide 5-10; N-terminus and C-terminus assumed)",equivalent ability to stain EpCAM,enhancement in ELISA signal was observed,confirmed,staining of the cell membrane portions of the EpCAM-expressing cells HT-29 was observed,no binding activity against EpCAM,oxidized after 10 days to form an S—S bond,rapidly oxidized,stained,no staining was observed,–,–
"CC[C@H](C)[C@@H]1NC(=O)[C@@H](NC(=O)[C@H](CCC(N)=O)NC(=O)[C@H](CC(C)C)NC(=O)[C@H](CO)NC(=O)[C@@H](N)CCCCN)CSSC[C@@H](C(=O)N[C@@H](Cc2c[nH]c3ccccc23)C(=O)N2CCC[C@H]2C(=O)O)NC(=O)[C@H](CC(C)C)NC(=O)[C@H](CC(N)=O)NC(=O)[C@H](CC(N)=O)NC1=O [Ep301, KSLQCINNLCWP, reference compound] (H-KSLQCINNLCWP-OH; disulfide 5-10; N-terminus and C-terminus assumed)",–,–,–,–,–,–,–,–,–,gain binding activity against EpCAM,weak
